Experimental findings from ChEMBL document CHEMBL1201862, “PubChem BioAssay data set” (2004) are described below.

Among the test systems are 786-0; ACHN; EKVX; HCT-15; HT-29; Hs-578T; MCF7; MDA-MB-231; MOLT-4; Malme-3M; NCI-H23; OVCAR-3; OVCAR-5; OVCAR-8; RPMI-8226; RXF 393; SK-MEL-28; SK-MEL-2; SN12C; SR.
Test in all cases: inhibition of tumour cell growth, NCI panel, 48 h

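Interpolation was linear, between the two tested concentrations surrounding the appropriate level; five concentrations were tested over 48 hours in 96-well plates. GI50: concentration for 50% inhibition of growth.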 Active and inactive are the calls of the source. Cut-off read from the data, not from the text of the source: active = GI50 up to about 1.1 µM and inactive = higher.

As to `Nc1cc2c3c(cccc3c1)C(=O)N(c1ccc(OCCN3CCCCC3)cc1)C2=O`, the GI50 is 16.9 µM (inactive) in the test on 786-0; 15.9 µM (inactive) in the test on ACHN; 20.4 µM (inactive) with EKVX; 12.7 µM in the test on HCT-15; 10.2 µM (inactive) in the test with HT-29; 27.7 µM (inactive) with Hs-578T. The GI50 in the test on MCF7 is 19.1 µM (inactive); in the test on MDA-MB-231, 14.2 µM (inactive); in the test with MOLT-4 it was 12.1 µM (inactive); in the test with Malme-3M, 14.5 µM (inactive); in the test with NCI-H23, 16.1 µM (inactive); in the test on OVCAR-3 it was 16.7 µM (inactive). Further, the GI50 with OVCAR-5 is 20.8 µM (inactive); in the test with OVCAR-8, 16.1 µM (inactive); in the test with RPMI-8226, 18.3 µM (inactive); with RXF 393, 16.7 µM (inactive); with SK-MEL-28, 22.2 µM (inactive); with SK-MEL-2, 17.2 µM (inactive). Also, the GI50 in the test with SN12C was 15.9 µM (inactive); in the test with SR it was 14 µM (inactive).
Consider `CCOC(=O)c1sc2nc(SC)nc3c2c1NCN3c1ccc2c(c1)OCO2`, for which the GI50 in the test on 786-0 is 4.34 µM (inactive); in the test with ACHN, 5.94 µM (inactive); in the test on EKVX, 42.2 µM (inactive); in the test on HCT-15, 52.5 µM; with HT-29 it was 31.3 µM (inactive); in the test with Hs-578T, 3.58 µM (inactive). The GI50 in the test with MCF7 is 16.7 µM (inactive); with MDA-MB-231 it was 13.4 µM (inactive); with MOLT-4, 26.1 µM (inactive); with Malme-3M, 17.9 µM (inactive); in the test with NCI-H23, 41.9 µM (inactive); in the test on OVCAR-3, 10.8 µM (inactive). In addition, the GI50 is 97.5 µM (inactive) in the test on OVCAR-5; 5.41 µM (inactive) in the test on OVCAR-8; 24.2 µM (inactive) in the test with RPMI-8226; 3.14 µM (inactive) in the test with RXF 393; 8.04 µM (inactive) with SK-MEL-28; 18.3 µM (inactive) with SK-MEL-2. In addition, the GI50 was 39.4 µM (inactive) with SN12C and 39.3 µM (inactive) with SR.
As for `COC1CC(CC2CCC(C)C(C(C)C(=O)O)O2)OC2(OC(C)(C3CCC(C)(C4OC(C5OC(O)(CO)C(C)CC5C)CC4C)O3)CC2C)C1C` (stereo not given), the GI50 with 786-0 was 1.08 µM (active); in the test with ACHN, 0.964 µM (active); in the test on EKVX it was 2.15 µM (inactive); in the test on HCT-15, 1.85 µM; with HT-29 it was 0.183 µM (active); in the test with Hs-578T, 0.91 µM (active). Besides, the GI50 was 0.15 µM (active) with MCF7; 1.53 µM (inactive) with MDA-MB-231; 0.347 µM (active) in the test with MOLT-4; 0.0923 µM (active) in the test on Malme-3M; 0.295 µM (active) in the test on NCI-H23; 0.0406 µM (active) in the test on OVCAR-3. Besides, the GI50 is 8.11 µM (inactive) in the test on OVCAR-5; 1.38 µM (inactive) with OVCAR-8; 0.167 µM (active) with RPMI-8226; < 0.0109 µM (active) in the test with RXF 393; 1.43 µM (inactive) in the test on SK-MEL-28; 0.646 µM (active) in the test on SK-MEL-2. The GI50 with SN12C was 0.257 µM (active); in the test on SR it was 0.0634 µM (active).
With `NCC[Se][Se]CCN`, the GI50 in the test with 786-0 was 14 µM (inactive); in the test on ACHN it was 10 µM (inactive); in the test with EKVX, 5.38 µM (inactive); in the test on HCT-15, 6.24 µM; in the test on HT-29, 10 µM (inactive); with Hs-578T, 12.4 µM (inactive). Also, the GI50 in the test with MCF7 is 8.79 µM (inactive); in the test on MDA-MB-231, 12.8 µM (inactive); with MOLT-4 it was 5.25 µM (inactive); in the test on Malme-3M, 11.9 µM (inactive); in the test with NCI-H23, 15 µM (inactive); in the test on OVCAR-3, 13.9 µM (inactive). The GI50 in the test with OVCAR-5 was 5.56 µM (inactive); with OVCAR-8, 10.6 µM (inactive); in the test on RPMI-8226, 12.9 µM (inactive); in the test with RXF 393, 15.6 µM (inactive); in the test with SK-MEL-28, 13.3 µM (inactive); in the test on SK-MEL-2, 7.57 µM (inactive). In addition, the figures for the GI50 in the test on SN12C and with SR were 6.76 µM (inactive) and 10.1 µM (inactive), respectively.
Regarding `C[C@H]1COC2=C1C(=O)C(=O)c1c2ccc2c1CCCC2(C)C` [CRYPTOTANSHINONE], the GI50 is 3.42 µM (inactive) in the test on 786-0; 3.6 µM (inactive) in the test with ACHN; 4.62 µM (inactive) in the test on EKVX; 1.94 µM in the test with HCT-15; 2.18 µM (inactive) in the test on HT-29; 2.29 µM (inactive) in the test on Hs-578T. Further, the GI50 with MCF7 is 2.22 µM (inactive); in the test with MDA-MB-231, 12 µM (inactive); in the test on MOLT-4, 4.24 µM (inactive); in the test on Malme-3M it was 0.305 µM (active); in the test with NCI-H23, 1.55 µM (inactive); with OVCAR-3 it was 0.326 µM (active). For the same compound, the GI50 in the test with OVCAR-5 is 16.1 µM (inactive); in the test with OVCAR-8, 2.58 µM (inactive); in the test on RPMI-8226 it was 3.31 µM (inactive); with RXF 393, 6.3 µM (inactive); with SK-MEL-28, 3.19 µM (inactive); in the test on SK-MEL-2 it was 4.25 µM (inactive). The values for the GI50 in the test on SN12C and in the test with SR were 4.37 µM (inactive) and 3.42 µM (inactive), respectively.
